Assay results published in patent publication US12233071B2, “Medicament for treating cough” (NIPPON CHEMIPHAR CO., LTD, priority 2018, dated 2025).
Counter-ions that a name gives are not always drawn. Like-named read-outs stand apart in the source and are kept apart here.

Experiments:
[1] = molecular target: T1, human P2X4 (Homo sapiens, UniProt Q99571); assay: P2X4 receptor antagonistic action: ATP-induced intracellular calcium response (Fura-2AM) in P2X4 receptor-expressing 1321N1 cells; assay type: cell-based
T1 sequence (Q99571 1-388): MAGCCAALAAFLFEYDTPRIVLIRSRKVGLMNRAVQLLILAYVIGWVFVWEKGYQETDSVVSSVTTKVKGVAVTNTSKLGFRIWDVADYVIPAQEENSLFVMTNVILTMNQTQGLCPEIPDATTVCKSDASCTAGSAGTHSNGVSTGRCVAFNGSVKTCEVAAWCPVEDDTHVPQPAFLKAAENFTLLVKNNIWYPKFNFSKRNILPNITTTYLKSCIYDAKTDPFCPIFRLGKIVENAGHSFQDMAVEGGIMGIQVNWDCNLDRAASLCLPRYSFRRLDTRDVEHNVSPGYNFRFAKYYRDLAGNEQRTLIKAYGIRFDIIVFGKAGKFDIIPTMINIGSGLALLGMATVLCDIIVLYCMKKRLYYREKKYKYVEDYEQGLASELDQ
Experimental: An ATP receptor (human P2X4) was introduced in 1321N1 cells, which were then used as a system in which P2X4 receptor was expressed stably. The P2X4 receptor-expressing cells were seeded on a 96-well plate, were cultured for 24 h under conditions at 37° C. and 5% C02, and were then used for calcium measurement. Fura-2AM, which is a calcium fluorescence indicator, was dissolved in an extracellular solution for calcium imaging and applied to the seeded cells. Then, the cells were allowed to stand at room temperature for 45 min. In this way, the Fura-2AM was taken up in the cells. A micro plate reader EnVision (PerkinElmer) was used for the measurement. Light emitted from a xenon lamp was made to pass through a 340-nm or 380-nm filter, and F340 or F380, which is 510-nm fluorescence emitted when the cells were irradiated, were observed. Then, a change in the ratio value F340/F380 was an index for the intracellular calcium change. The measurement was carried out by adding ATP at the final concentration of 1 μM to each well and by recording, over time, the ATP-induced intracellular calcium response. The inhibitory activity of each test substance was measured by conducting 15-min pretreatment with each test substance before ATP application, and was calculated while compared to the case of the absence of the test substance.

[2] = system: citric acid-induced cough; conditions: cited from earlier work
[3] = system: citric acid (0.5 M)-induced cough; assay: Citric acid-induced cough reflux in pretreatment guinea pigs, oral administration; assay type: in vivo, Hartly strain guinea pigs; conditions: for number of coughs, pre versus post administration: pretreatment guinea pigs
From the text: Cough reflux is induced by inhalation of (in the case of mice, 0.1 M or 0.25 M and in the case of guinea pigs, 0.25 M or 0.5 M) citric acid by mice or guinea pigs under non-anesthesia conditions. The citric acid is made aerosol by using an ultrasonic nebulizer (NE-U17: OMRON Corporation), and is inhaled while the air is supplied with an artificial respirator (SN-480-7: Shinano Seisakusho). The citric acid aerosol has an average particle size of from 1 to 8 μm, and the artificial respirator is used to supply the air at a one-time ventilation volume of 6 mL, a frequency of 30 times per min, and an inhalation period of 3 min.
The respiration and the cough reflux are measured in accordance with the body-plethysmograph method. The plethysmograph used includes: a plastic-made, cylindrical cylinder part in which the trunk of each mouse or guinea pig is housed; and a cap part that covers the head portion (any plastic-made cylinder is allowed as long as each experimental animal can be put in; in the case of the mouse, for instance, the part with a diameter of 4 cm and a length of 7 cm was used). An exhaust hole is created at an upper cylinder portion so as to be able to connect, via a silicon tube, to a respiratory flow meter (TP-602T: NIHON KOHDEN CORPORATION). To tightly seal the inside of the cylinder, a rubber or celluloid collar is attached to the neck of each animal, and the cap covering the whole head is used to fix them. The head-attached cap part has an exhaust port and an inhalation port created for inhalation of a cough-inducing substance. In addition, a screw-type lid is attached to a tail portion of the cylinder so as to move in or out each experimental animal. Each mouse is put in the cylinder, allowed to play for at least 30 min, adapted to an experimental environment, and then subjected to the experiment. The respiration is recorded in a PC (IdeaPad 300: Lenovo) for measurement by measuring, as a change in volume of the cylinder, the chest movement of each experimental animal in the cylinder by using a PowerLab (ML826 PowerLab 2/26: AD Instruments) via a respiratory flow meter. When a cough is induced, the chest of the experimental animal is moved vigorously, which causes an instantaneous large volume change in the cylinder. This change is recorded using the respiratory flow meter. This frequency is recorded to measure the number of coughs. The data is analyzed by LabChart version 8 (ADInstruments). In addition, immediately before inhalation of citric acid, the respiratory frequency per 15 sec is measured.
In this way, the effects were investigated.
At that time, Hartly strain guinea pigs were used as the guinea pigs, and 0.5 M citric acid was used as the citric acid.
In this way, the effects were investigated. Here, 0.5 M citric acid was used as the pretreated citric acid.

[4] = system: citric acid (0.25 M)-induced cough; assay: Citric acid-induced cough reflux in pretreatment mice, oral administration; assay type: in vivo, ICR strain mice; conditions: oral 10 mg/kg, 0.25 M citric acid 1 h after administration
[5] = Table 131 (Example 1), human P2X4-expressing 1321N1 cells, ATP 1 μM, Fura-2AM calcium response, read-out: IC50

5-[4-[(2-(3-fluorophenyl)ethyl)-1H-imidazol-1-yl]phenyl]-1H-naphtho[1,2-b][1,4]diazepin-2,4(3H,5H)-dione hydrochloride [Compound H31]
IC50 ([1]; Table 135 (Example 14), same protocol as Example 1, read-out: Inhibitory action IC50): 51 nM

Nc1ncnc2c1ncn2[C@@H]1O[C@H](COP(=O)(O)OP(=O)(O)OP(=O)(O)O)[C@@H](O)[C@H]1O [ATP, adenosine triphosphate]
effect of ATP on citric acid-induced cough ([2]; guinea pigs, Non Patent Literature 1): elicited a concentration-dependent and significant increase

O=C1CN=C(c2cccc(-c3nnn[nH]3)c2)c2ccc3ccccc3c2N1 [Compound A21, 5-[3-(1H-tetrazol-5-yl)phenyl]-1,3-dihydro-2H-naphtho[1,2-e][1,4]diazepin-2-one sodium salt]
IC50 [1]: 910 nM

O=C1CC(=O)N(c2ccc(F)c(-c3nnn[nH]3)c2)c2ccc3ccccc3c2N1 [Compound A23, 5-[4-fluoro-3-(1H-tetrazol-5-yl)phenyl]-1H-naphtho[1,2-b][1,4]diazepin-2,4(3H,5H)-dione sodium salt]
IC50 [1, 5]: 490 nM

O=c1[nH]c2c3ccccc3ccc2n(-c2cccc(-c3nnn[nH]3)c2)c1=O [Compound C2, 4-[3-(1H-tetrazol-5-yl)phenyl]-1,4-dihydrobenzo[f]quinoxalin-2,3-dione sodium salt]
IC50 [1, 5]: 570 nM

O=c1nc(-c2cccc(-c3nnn[nH]3)c2)c2ccc3ccccc3c2[nH]1 [Compound D2, 4-[3-(1H-tetrazol-5-yl)phenyl]-1H-benzo[h]quinazolin-2-one sodium salt]
IC50 [1, 5]: 330 nM

O=C1CC(=O)N(c2ccc(-n3nnnc3Cc3ccccc3O)nc2)c2ccc3ccccc3c2N1 [Compound H11, 5-[6-[5-(2-hydroxybenzyl)-1H-tetrazol-1-yl]pyridin-3-yl]-1H-naphtho[1,2-b][1,4]diazepin-2,4(3H,5H)-dione]
IC50 ([1]; Table 134 (Example 14), same protocol as Example 1, read-out: Inhibitory action IC50): 77 nM

COc1c(F)cccc1CCc1nccn1-c1ccc(N2C(=O)CC(=O)Nc3c2ccc2ccccc32)cc1 [Compound H83, 5-[4-[(2-(3-fluoro-2-methoxyphenyl)ethyl)-1H-imidazol-1-yl]phenyl]-1H-naphtho[1,2-b][1,4]diazepin-2,4(3H,5H)-dione hydrochloride]
IC50 ([1]; read-out: Inhibitory action IC50): 87 nM

O=C1CC(=O)N(c2ccc(NC(=O)c3ccccc3C(F)(F)F)cc2)c2ccc3ccccc3c2N1 [compound C, 5-[4-[2-(trifluoromethyl)benzoyl]aminophenyl]-1H-naphtho[1,2-b][1,4]diazepin-2,4(3H,5H)-dione]
cough response increased due to airway inflammation ([3]; as stated in Example 15, oral 58.8 mg/kg): inhibited completely | number of coughs, pre versus post administration ([3]; oral 58.8 mg/kg 1 h before 0.5 M citric acid stimulation): significantly decreased

CN(C)c1ncccc1C(=O)Nc1ccc(C2=NCC(=O)Nc3c2ccc2ccccc32)cc1.Cl.Cl [compound D, 2-(dimethylamino)-N-[4-(2-oxo-2,3-dihydro-1H-naphtho[1,2-e][1,4]diazepin-5-yl)phenyl]nicotinamide dihydrochloride]
cough response increased due to airway inflammation ([3]; as stated in Example 15, oral 30 mg/kg): completely inhibit | number of coughs, pre versus post administration ([3]; oral 30 mg/kg 1 h before 0.5 M citric acid stimulation): significantly decreased

COc1ccc2c3c1O[C@H]1[C@@H](O)CC[C@H]4[C@@H](C2)N(C)CC[C@@]341 [dihydrocodeine, reference compound]
cough inhibition rate, compound A versus the same dose of dihydrocodeine [4]: comparable

TNP-ATP
number of coughs induced by citric acid and increased depending on the concentration of ATP ([2]; Non Patent Literature 2): decreased | inhibition of the ATP-elicited increase of citric acid-induced cough ([2]; guinea pigs, inhalation pretreatment / aerosol, Non Patent Literature 1): completely inhibited
